Patent US20220193445A1, “PHOTOERADICATION OF MICROORGANISMS WITH PULSED PURPLE OR BLUE LIGHT” (SAN DIEGO STATE UNIVERSITY RESEARCH FOUNDATION, priority 2016, published 2022)
Values joined by “and” are separate entries in the source; they are usually repeats but may differ in a detail not shown here. Identical values can stand only once.

What was measured:
[1] = system: GBS wild type strain COH1; experiment: GBS survival with porphyrin supplementation and 30 min incubation (optional wash), with or without pulsed 450 nm light (Study 2); assay type: cell-based, Group B Streptococcus (GBS)
Protocol: (§1) GBS wild type strain COH1 was added to 3 mL of Todd Hewitt broth and grown aerobically overnight at 37° C. From the overnight cultures, 500 uL of GBS was added to fresh Todd Hewitt broth and grown logarithmically at 37° C. until reaching a concentration of 10^8 CFU/mL. The culture was then centrifuged at 1300 rpm for three minutes, the supernatant was removed and discarded, and 1 mL of fresh Todd Hewitt broth was added.
The culture was then split into three Eppendorf tubes—a first tube for GBS and second and third tubes for GBS with diluted porphyrins used for incubation. Diluted porphyrins (PPIX or CP III) were added into the second and third tubes and incubated for 30 minutes at 37° C. The third tube was then washed three times with phosphate-buffered saline (PBS) and centrifuged at 1300 rpm for three minutes, and the supernatant was removed and discarded. Serial dilutions of NaCl were made to obtain a suspension of GBS diluted to a concentration of 1×10^4 CFU/mL. The GBS were streaked onto Todd Hewitt agar plates.
(§2) The lighted substrate was set to operate in 33% DF pulsed mode and driven with a constant current source. The average irradiance was 3 mW/cm^2. The pulse duration was 10 microseconds with an off time of 20 microseconds, and a pulse repetition rate of 33 kHz. The plates subject to light treatment were irradiated three times at […] with a radiant exposure of 7.56 J/cm^2 during each irradiation session (i.e., each irradiation session was 42 minutes with an incubation period therebetween of 30 minutes).
(§3) After irradiation protocols were completed, the plates were placed upside down in the anaerobic chamber and incubated at 37° C. for 24 hours. The plates were photographed, colonies counted and statistics of percent survival recorded.

[2] = system: GBS wild type strain COH1; experiment: GBS survival with porphyrin supplementation, with or without pulsed 450 nm light (Study 1, no incubation); assay type: cell-based, Group B Streptococcus (GBS)
Protocol: as §1, with “added. Serial dilutions of NaCl were made to obtain a suspension of GBS diluted to a concentration of 1×10^4 CFU/mL. The GBS were streaked onto Todd Hewitt agar plates both with and without the addition of diluted porphyrins (different concentrations of PPIX or CP III).” for “added.”
as §2, with “there between” for “therebetween”
as §3

[3] = 0.2 mg/mL (incubated) + pulsed 450 nm light 7.56 J/cm^2, three irradiations
[4] = 0.2 mg/mL (incubated), without any irradiation
[5] = 0.05 mg/mL porphyrin + pulsed 450 nm light, 7.56 J/cm^2, 3 mW/cm^2, 33% DF, three irradiations

| Compound | percent GBS survival compared to the control ([1]; 0.02 mg/mL (incubated and washed) + pulsed 450 nm light 7.56 J/cm^2, three irradiations) | percent GBS survival compared to the control ([1]; 0.02 mg/mL (incubated and washed), no irradiation) | percent GBS survival compared to the control ([1]; 0.02 mg/mL (incubated) + pulsed 450 nm light 7.56 J/cm^2, three irradiations) | percent GBS survival compared to the control ([1]; 0.02 mg/mL (incubated), without any irradiation) | percent GBS survival compared to the control ([1]; 0.08 mg/mL (incubated and washed) + pulsed 450 nm light 7.56 J/cm^2, three irradiations) | percent GBS survival compared to the control ([1]; 0.08 mg/mL (incubated and washed), no irradiation) | percent GBS survival compared to the control ([1]; 0.08 mg/mL (incubated) + pulsed 450 nm light 7.56 J/cm^2, three irradiations) | percent GBS survival compared to the control ([1]; 0.08 mg/mL (incubated), without any irradiation) | percent GBS survival compared to the control ([1]; 0.2 mg/mL (incubated and washed) + pulsed 450 nm light 7.56 J/cm^2, three irradiations) | percent GBS survival compared to the control ([1]; 0.2 mg/mL (incubated and washed), no irradiation) | percent GBS survival compared to the control [1, 3] | percent GBS survival compared to the control [1, 4] | percent GBS survival compared to the control ([2]; 0.02 mg/mL porphyrin + pulsed 450 nm light, 7.56 J/cm^2, 3 mW/cm^2, 33% DF, three irradiations) | percent GBS survival compared to the control [2, 5] | percent GBS survival compared to the control ([1]; 0.05 mg/mL (incubated and washed) + pulsed 450 nm light 7.56 J/cm^2, three irradiations) | percent GBS survival compared to the control ([1]; 0.05 mg/mL (incubated and washed), no irradiation) | percent GBS survival compared to the control ([1]; 0.05 mg/mL (incubated) + pulsed 450 nm light 7.56 J/cm^2, three irradiations) | percent GBS survival compared to the control ([1]; 0.05 mg/mL (incubated), without any irradiation) | percent GBS survival compared to the control ([2]; 0.02 mg/mL porphyrin, without any irradiation) | percent GBS survival compared to the control ([2]; 0.05 mg/mL porphyrin, without any irradiation) |
| --- | --- | --- | --- | --- | --- | --- | --- | --- | --- | --- | --- | --- | --- | --- | --- | --- | --- | --- | --- | --- |
| C=CC1=C(C)c2cc3[nH]c(cc4nc(cc5[nH]c(cc1n2)c(C)c5CCC(=O)O)C(CCC(=O)O)=C4C)c(C)c3C=C [PPIX, protoporphyrin IX] | approximately 18% | approximately 92% | approximately 68% | approximately 92% | approximately 40% | approximately 76% | approximately 52% | approximately 84% | approximately 10% | approximately 78% | approximately 50% | approximately 80% | 0% | 3% and 0% |  |  |  |  |  |  |
| coproporphyrin III [CP III] |  |  |  |  |  |  |  |  |  |  | 0% | approximately 82% |  | 0% | 0% | approximately 72% | 0% | approximately 90% | approximately 74% | approximately 84% |
